This is an account of results in patent US20220167627A1, “Microbial preparation of bacillus” (priority 2020, published 2022).

The structures appear in SMILES notation.

The test system of one test is rice seedlings. Nature of the test: IAA sensitivity test on rice seedlings. Format: in vivo. On the procedure: Taking rice and lettuce for example, IAA sensitivity of the microbial preparation is tested in steps of: disinfecting and germinating rice seedlings; putting the rice seedlings in a sterilized Petri dish in which a filter paper is disposed; […]; moving the sterilized Petri dish into a plant growth box for 4 days; measuring an average height of buds of the rice seedlings and an average height of roots of the rice seedlings;

In the next test the test system is lettuce. In words: IAA sensitivity test on lettuce. Format: in vivo. On the procedure:
Taking rice and lettuce for example, IAA sensitivity of the microbial preparation is tested in steps of: disinfecting seeds of the lettuce with 5% sodium hypochlorite and putting the seeds of the lettuce in another sterilized Petri dish in which a filter paper is disposed; adding 3 mL of 0.03 μM, 3 μM, 30 μM, and 300 μM of IAA aqueous solutions respectively; moving another sterilized Petri dish into another plant growth box for 3 days; and measuring a germination rate and a height of each lettuce and a length of a root of each lettuce.

For the compound `O=C(O)Cc1c[nH]c2ccccc12` [IAA], the “growth of the roots of the rice seedlings” value with rice seedlings (IAA 0.03 μM to 30 μM, 4 days, FIG. 1) was “does not promote a growth of the roots”; with rice seedlings (IAA 300 μM, 4 days, FIG. 1), “limited”; in the test on rice seedlings (IAA within 0.00003 μM to 0.003 μM), “do not grow obviously”. Also, the “growth of the lettuce seedlings” value with lettuce (IAA 0.03 μM (lowest concentration), 3 days) is “reduces a growth of the lettuce seedlings”. Further, the “height of lettuce sprouts” value in the test with lettuce (IAA 0.03 μM, 3 days (no IAA: 5.3 mm)) was found to be 3.5 mm. The “length of lettuce roots” value in the test on lettuce (IAA 0.03 μM, 3 days (no IAA: 14.8 mm)) is reported as 8.8 mm. Also, in the test with lettuce (IAA 300 μM, 3 days (no IAA: 78%)), the “germination rate of seeds of the lettuce” value stood at 13%.
